Assay: xn = mol fraction of the nth substance listed

Cc1ccc(C(C)C)c(O)c1 + CCCCCCCCCCCCCCCCCC(=O)O
100 kPa, x2 = 0.1
Conditions	viscosity [mPa·s]
318.15 K	6.88
323.15 K	5.68

CN1CCOC1=O + CS(C)=O
viscosity [mPa·s], 101.33 kPa
Conditions	298.15 K	308.15 K	318.15 K
x1 = 0.0465	2.004	1.663	1.404
x1 = 0.0841	2.012	1.673	1.413
x1 = 0.1676	2.037	1.698	1.437
x1 = 0.2419	2.06	1.72	1.459
x1 = 0.3415	2.09	1.751	1.49
x1 = 0.4275	2.126	1.782	1.518
x1 = 0.5401	2.171	1.826	1.558
x1 = 0.6395	2.218	1.872	1.603
x1 = 0.7524	2.28	1.923	1.645
x1 = 0.8785	2.359	1.99	1.703
x1 = 0.9514	2.415	2.038	1.744

CCN(CC)c1ccccc1 + CCCCCCO
viscosity [mPa·s], 100 kPa
Conditions	x1 = 0.1057	x1 = 0.1952	x1 = 0.3004	x1 = 0.4021	x1 = 0.5011	x1 = 0.6117	x1 = 0.7135	x1 = 0.8163	x1 = 0.9045
303.15 K	3.391	3.041	2.695	2.423	2.207	2.014	1.879	1.78	1.725
308.15 K	2.85	2.524	2.226	1.997	1.814	1.667	1.577	1.525	1.501
313.15 K	2.403	2.096	1.835	1.652	1.518	1.405	1.332	1.297	1.313
318.15 K	2.105	1.801	1.569	1.421	1.314	1.218	1.151	1.119	1.148

ClCCCCl + CCC(C)(C)O
viscosity [mPa·s], 101 kPa
Conditions	x1 = 0.101	x1 = 0.2021	x1 = 0.3082	x1 = 0.4082	x1 = 0.5066	x1 = 0.608	x1 = 0.7071	x1 = 0.808	x1 = 0.9003
298.15 K	2.779	1.877	1.393	1.18	1.061	0.9826	0.9381	0.9128	0.9114
313.15 K	1.508	1.164	0.9559	0.8566	0.7978	0.7579	0.7469	0.7328	0.7431

CCCCCCCCCCN + c1ccccc1
303.15 K, 101 kPa
Conditions	viscosity [mPa·s]
x2 = 0.2011	1.464
x2 = 0.3988	1.174
x2 = 0.4963	1.043
x2 = 0.5993	0.923
x2 = 0.7973	0.7207
